Molecular target: T1, Human MGAT-2 (Homo sapiens, UniProt Q3SYC2)
T1 construct: made in house; host or cells: Sf9 cells (membrane preparation)
Test: MGAT LCMS Assay
Assay type: biochemical
Conditions: human MGAT2 membranes expressed in Sf9 cells; 100 μM 2-oleoylglycerol, 15 μM oleoyl-coenzyme A; read-out: h-MGAT LCMS IC50
Summary of the method: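 Robotic enzyme reaction shaken 10 min, quenched with ice-cold methanol containing 1 μg/mL 1,2-distearoyl-rac-glycerol internal standard. Diolein product measured by LC/MS (C8 column, 65° C, APCI(+) triple quad). IC50 derived from diolein/internal standard peak area ratio.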

T1 sequence (Q3SYC2 whole entry): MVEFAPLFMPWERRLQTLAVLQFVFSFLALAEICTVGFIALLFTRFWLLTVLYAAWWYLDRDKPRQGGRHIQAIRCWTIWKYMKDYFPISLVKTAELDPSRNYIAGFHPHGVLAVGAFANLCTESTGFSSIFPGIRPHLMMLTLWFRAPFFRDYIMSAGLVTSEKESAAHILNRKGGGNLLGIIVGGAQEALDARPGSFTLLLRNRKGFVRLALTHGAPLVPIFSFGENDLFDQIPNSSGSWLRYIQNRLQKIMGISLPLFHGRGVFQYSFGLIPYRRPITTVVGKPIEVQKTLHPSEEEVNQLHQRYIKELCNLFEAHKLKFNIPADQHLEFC

| Structure (SMILES) | IC50 [µM] |
| --- | --- |
| CS(=O)(=O)NC(=O)c1c(-c2ccn(CC3CC3)n2)cc(-c2ccc(OCCCCCC(F)(F)F)cc2)[nH]c1=O [Example 105, 4-(1-(Cyclopropylmethyl)-1H-pyrazol-3-yl)-N-(methylsulfonyl)-2-oxo-6-(4-((6,6,6-trifluorohexyl)oxy)phenyl)-1,2-dihydropyridine-3-carboxamide] | 0.023 |
| O=c1[nH]c(-c2ccc(OCCCCCC(F)(F)F)cc2)cc(-c2ccn(C3CC3)n2)c1-c1nnn[nH]1 [Example 107] | 0.099 |
| O=c1[nH]c(-c2ccc(OCCCCCC(F)(F)F)cc2)cc(-c2ccc(OC(F)F)cc2)c1-c1nnn[nH]1 [Example 108, 4-(4-(Difluoromethoxy)phenyl)-3-(1H-tetrazol-5-yl)-6-(4-((6,6-trifluorohexyl)oxy)phenyl)pyridin-2(1H)-one] | 0.014 |
| CS(=O)(=O)NC(=O)c1c(-c2ccn(CC3CC3)n2)c(F)c(-c2ccc(OCCCC(F)(F)F)cc2)[nH]c1=O [Example 109, 4-(1-(Cyclopropylmethyl)-1H-pyrazol-3-yl)-5-fluoro-N-(methylsulfonyl)-2-oxo-6-(4-(4,4,4-trifluorobutoxy)phenyl)-1,2-dihydropyridine-3-carboxamide] | 0.13 |
| O=c1[nH]c(-c2ccc(OCCCCCC(F)(F)F)cc2)cc(-c2ccn(CC3CC3)n2)c1-c1nnn[nH]1 [Example 110, 4-(1-(Cyclopropylmethyl)-1H-pyrazol-3-yl)-3-(1H-tetrazol-5-yl)-6-(4-((6,6,6-trifluorohexyl)oxy)phenyl)pyridin-2(1H)-one] | 0.043 |
| Cc1ccc(-c2cc(-c3ccc(OCCCC(F)(F)F)cc3C(F)(F)F)[nH]c(=O)c2C(=O)Nc2ccc(OC(F)(F)F)cc2)cc1 [Example 111, 2-Oxo-4-(p-tolyl)-6-(4-(4,4,4-trifluorobutoxy)-2-(trifluoromethyl)phenyl)-N-(4-(trifluorormethoxy)phenyl)-1,2-dihydropyridine-3-carboxamide] | 0.002 |
| O=c1[nH]c(-c2ccc(OCCCC(F)(F)F)cc2F)cc(-c2ccc(OC(F)F)cc2)c1-c1nn[nH]n1 [Example 113, 4-(4-(Difluoromethoxy)phenyl)-6-(2-fluoro-4-(4,4,4-trifluorobutoxy)phenyl)-3-(2H-tetrazol-5-yl)pyridin-2(1H)-one] | 0.007 |
| CCOc1ccc(NC(=O)c2c(-c3ccc(C)cc3)cc(-c3ccc(OCCCC(F)(F)F)cc3F)[nH]c2=O)cc1 [Example 114, N-(4-Ethoxyphenyl)-6-(2-fluoro-4-(4,4,4-trifluorobutoxy)phenyl)-2-oxo-4-(p-tolyl)-1,2-dihydropyridine-3-carboxamide] | 0.014 |
| CCc1ccc(-c2cc(-c3ccc(OCCCC(F)(F)F)cc3F)[nH]c(=O)c2C(=O)Nc2ccc(OC(F)(F)F)cc2)s1 [Example 116, 4-(5-Ethylthiophen-2-yl)-6-(2-fluoro-4-(4,4,4-trifluorobutoxy)phenyl)-2-oxo-N-(4-(trifluoromethoxy)phenyl)-1,2-dihydropyridine-3-carboxamide] | 0.017 |
| Cc1ccc(-c2c(F)c(-c3ccc(OCCCCCC(F)(F)F)cc3)[nH]c(=O)c2C(=O)NS(C)(=O)=O)cc1 [Example 117, 5-Fluoro-N-(methylsulfonyl)-2-oxo-4-(p-tolyl)-6-(4-((6,6,6-trifluorohexyl)oxy)phenyl)-1,2-dihydropyridine-3-carboxamide] | 0.029 |
| O=C(Nc1ccc(OC(F)(F)F)cc1)c1c(-c2ccn(CC3CC3)n2)cc(-c2ccc(OCCCCCC(F)(F)F)cc2F)[nH]c1=O [Example 118, 4-(1-(Cyclopropylmethyl)-1H-pyrazol-3-yl)-6-(2-fluoro-4-((6,6,6-trifluorohexyl)oxy)phenyl)-2-oxo-N-(4-(trifluoromethoxy)phenyl)-1,2-dihydropyridine-3-carboxamide] | 0.019 |
| CCOc1ccc(NC(=O)c2c(-c3ccn(CC)n3)cc(-c3ccc(OCCCC(F)(F)F)cc3F)[nH]c2=O)cc1 [Example 119, N-(4-Ethoxyphenyl)-4-(1-ethyl-1H-pyrazol-3-yl)-6-(2-fluoro-4-(4,4,4-trifluorobutoxy)phenyl)-2-oxo-1,2-dihydropyridine-3-carboxamide] | 0.01 |

— patent US9974778B2, “Substituted pyridinones as MGAT2 inhibitors” (BRISTOL-MYERS SQUIBB COMPANY, priority 2014, dated 2018)
